Results reported in patent publication US12186284B2, “Antimicrobial formulations for the treatment of veterinary hoof infections” (Provita Eurotech Ltd, priority 2016, dated 2025).

Tests used:
[1] = test system: Escherichia coli (NCTC12241); experiment: Minimum inhibitory concentration (MIC); format: cell-based; settings: three times the minimum inhibitory concentration
[2] = test system: Escherichia coli (NCTC12241); experiment: Rate of kill assay based on BS EN 1276:1997, clean and dirty conditions; format: cell-based; settings: 3× MIC (0.375% v/v; CS 0.15% w/v)
Excerpt: The rate of kill assay is based on the British and European standard test conditions BS EN 1276:1997.
The initial inoculum of microorganism ranged between 10^6-10^7 colony forming units per mL.

O=S(=O)([O-])[O-].[Cu+2] [CS, copper sulphate]
3MIC [1]: 0.15%
Surviving Bacterial Count (cfu/mL) under clean and dirty conditions ([2]; contact time 0 s, clean (no bovine albumin)): 3.2 × 10^6 cfu/mL
Surviving Bacterial Count (cfu/mL) under clean and dirty conditions ([2]; contact time 0 s, dirty (0.3% bovine albumin)): 1.4 × 10^7 cfu/mL
Surviving Bacterial Count (cfu/mL) under clean and dirty conditions ([2]; contact time 30 s, clean (no bovine albumin)): 1.7 × 10^6 cfu/mL
Surviving Bacterial Count (cfu/mL) under clean and dirty conditions ([2]; contact time 30 s, dirty (0.3% bovine albumin)): 1.1 × 10^7 cfu/mL
Surviving Bacterial Count (cfu/mL) under clean and dirty conditions ([2]; contact time 60 s, clean (no bovine albumin)): 6.2 × 10^5 cfu/mL
Surviving Bacterial Count (cfu/mL) under clean and dirty conditions ([2]; contact time 60 s, dirty (0.3% bovine albumin)): 9.7 × 10^6 cfu/mL
Surviving Bacterial Count (cfu/mL) under clean and dirty conditions ([2]; contact time 120 s, clean (no bovine albumin)): 3.3 × 10^5 cfu/mL
Surviving Bacterial Count (cfu/mL) under clean and dirty conditions ([2]; contact time 120 s, dirty (0.3% bovine albumin)): 5.2 × 10^6 cfu/mL
Surviving Bacterial Count (cfu/mL) under clean and dirty conditions ([2]; contact time 300 s, clean (no bovine albumin)): 5.0 × 10^3 cfu/mL
Surviving Bacterial Count (cfu/mL) under clean and dirty conditions ([2]; contact time 300 s, dirty (0.3% bovine albumin)): 3.2 × 10^4 cfu/mL
